Measured values reported in BindingDB's records for doi:10.1016/j.bmcl.2005.10.011 (4Sc, 2006).

Target: T1, Dihydroorotate dehydrogenase (quinone), mitochondrial [30-395] (Homo sapiens, UniProt Q02127)
T1 construct: 30-395
Experiment: DHODH Inhibition Assay
Conditions: pH 8; 25 °C
Description: The assays were carried out by using a colorimetric DCIP method, which uses the colorimetric reagent 2, 6-dichlorophenolindophenol as the final electron acceptor. DCIP reduction is stoichiometrically equivalent to oxidation of dihydroorotate. Changes in absorbance were quantified in triplicate on a plate reader and data were analyzed to measure the reduction of DCIP as a decrease in absorbance at 610 nm. […] Each data point was recorded in triplicates on a single measurement day.

T1 sequence (Q02127 30-395): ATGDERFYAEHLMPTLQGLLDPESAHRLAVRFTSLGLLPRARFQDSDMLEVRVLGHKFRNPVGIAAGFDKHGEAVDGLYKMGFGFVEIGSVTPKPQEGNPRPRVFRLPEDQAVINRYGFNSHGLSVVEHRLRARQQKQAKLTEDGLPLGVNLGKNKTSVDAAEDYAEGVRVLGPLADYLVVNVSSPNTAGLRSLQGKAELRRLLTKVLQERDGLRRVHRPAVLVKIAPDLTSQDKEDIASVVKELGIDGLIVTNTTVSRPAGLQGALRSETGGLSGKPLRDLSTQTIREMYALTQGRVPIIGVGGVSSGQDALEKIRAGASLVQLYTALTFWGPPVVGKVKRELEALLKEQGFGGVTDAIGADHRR

- IC50: 0.01 µM
SMILES: O=C(O)c1cscc1C(=O)Nc1c(F)cc(-c2cccc(OC(F)(F)F)c2)cc1F [4-({2,6-difluoro-4-[3-(trifluoromethoxy)phenyl]phenyl}carbamoyl)thiophene-3-carboxylic acid]
